Measured values reported in patent publication US20240115496A1, “A COMPOUND DRY POWDER INHALANT AND USE THEREOF” (TIANJIN UNIVERSITY OF TRADITIONAL CHINESE MEDICINE, priority 2021, published 2024).
Structures can show the parent of a compound that is named as a salt.

Key:
[1] = In vivo pharmacokinetics, lung tissue homogenate (UPLC-MS/MS); set-up: species or system rat; conditions: for CL/F (clearance) / Cmax / Tmax / half-life / MRT last: AH in rat lung tissue; for concentration at 2 min / concentration at 4 min / concentration at 10 min / concentration at 15 min / concentration at 30 min / concentration at 60 min / concentration at 120 min / concentration at 240 min / concentration at 360 min / Cmax / Tmax / half-life / MRT last: male; for concentration at 2 min / concentration at 4 min / concentration at 10 min / concentration at 15 min / concentration at 30 min / concentration at 60 min / concentration at 120 min / concentration at 240 min / concentration at 360 min: rat lung tissue homogenate, read-out: Drug concentration of AH in lung tissue; for Cmax / Tmax / half-life / MRT last: lung tissue (homogenate supernatant); for half-life: read-out: HLz (biological half-life) (converted); for MRT last: read-out: MRTlast (mean retention time)
Protocol: (§1) SPF-grade healthy SD male rats, body weight 180-220 g, purchased from SPF (Beijing) Biotechnology Co., Ltd (Certificate No. SCXK (Beijing) 2019-0010), were conventionally reared under (23±2)° C., humidity: (50±10)%. This study was conducted with the approval of the Animal Experiment Center of Tianjin University of Traditional Chinese Medicine.
(§2) 108 SPF-grade SD male rats were randomly divided into tail intravenous injection group and pulmonary administration group, with 9 time points of 2 min, 4 min, 10 min, 15 min, 30 min, 1 h, 2 h, 4 h and 6 h per group, 6 rats per time point per group. The rats were fasted for 12 h before the experiment, with water provided. The rats were weighed (to calculate the dose) and numbered, and both groups were intraperitoneally injected with 10% chloral hydrate at a dose of 2 mL/kg. Group 1 was administered BA/AH-DPI saline solution by tail intravenous injection at a dose of 9 mg/kg. Group 2 was administered 3 mg of BA/AH-DPI fine powder at the same dose by spray administration with a DP-4 tracheal insufflator (1.5 mL of air was pushed each time, 3-4 times consecutively). Blood was sampled from the abdominal aorta of the rats in both groups at the above time points after drug administration, and the rats were executed. The obtained whole blood was placed in a centrifuge tube with sodium heparin, centrifuged at 4000 r/min for 10 min, and the upper layer of plasma was separated and stored a refrigerator at −80° C. After blood collection, the thoracic cavity was quickly opened and the lungs of the rats were isolated. The small amount of floating blood on the surface of the lung tissue was washed with saline in an ice bath. The surface of the lung tissue was blotted with filter paper. The trachea was cut off, wrapped in tin foil and placed in a 10 mL centrifuge tube. The lung was weighed precisely, and stored in a refrigerator at −80° C.
The lung tissues were added to saline in a weight to volume ratio of 1:4 (g:mL). A homogenate was obtained by beating, dispersing and evenly grinding with a homogenizer under an ice water bath, and centrifuged at 6500 r/min for 20 min to obtain the supernatant of the lung tissue homogenate.
(§3) 100 μL of the plasma sample or lung tissue supernatant was precisely absorbed, and 200 μL (100 ng/mL) of methanol solution containing the internal standard was added. The mixture was vortexed and mixed for 3 min, and centrifuged at 12000 r/min for 10 min to obtain the supernatant as the finished sample. The contents of BA and AH were determined by UPLC-MS/MS method.
(§4) Electrospray ion source (ESI source); scan mode: positive (ESI+) detection; detection mode: multi-reactive ion monitoring (MRM). Electrospray voltage: 4 kV; atomization gas: N2; spray gas flow rate (Gas1): 15 psi; ion source temperature: 300° C.
(§5) Meaning of pharmacokinetic parameters: HLz was the biological half-life, i.e., the time required for the amount or blood concentration of the drug in the body to decrease by half; Tmax was the time to peak, i.e., the time required to reach the peak concentration of the drug after administration. Cmax was the peak drug concentration, i.e., the highest blood concentration that occurred after administration of the drug. AUC was the area enclosed by the blood drug concentration curve against the time axis. Vz/F was the apparent volume of distribution, the ratio constant of the amount of drug in the body to the blood concentration when the drug reached dynamic equilibrium in the body. CL/F was the clearance, i.e., the number of apparent volume of distribution of the drug removed from the body per unit time. AUMC was the first order moment of the drug-time curve, i.e. the area under the curse of the product of time and blood concentration versus time. MRTlast was the mean retention time, i.e., the average of the residence time of drug molecules in the body.

[2] = Particle size distribution test, laser particle size analyzer, dry dispersion; format: physicochemical
Protocol: The particle size distribution of DPI dry powder was measured by dry dispersion method using laser particle size analyzer, and Dv10, Dv50, Dv90, VMD (Volume median diameter) and SMD (Sauter mean diameter) were determined, respectively.

[3] = In vivo pharmacokinetics, plasma (UPLC-MS/MS); set-up: species or system rat; conditions: for half-life: read-out: HLz (biological half-life) (converted); for MRT last: read-out: MRTlast (mean retention time); for concentration at 2 min / concentration at 10 min / concentration at 15 min / concentration at 30 min / concentration at 60 min / concentration at 120 min / concentration at 240 min / concentration at 360 min / concentration at 4 min: read-out: Blood concentration of AH
Protocol: as §1, §2, §3, §4, §5

[4] = Sprague-Dawley (SD), inhaled, pulmonary administration BA/AH-DPI 9 mg/kg
[5] = Sprague-Dawley (SD), inhaled or intranasal, pulmonary administration group, BA/AH-DPI 9 mg/kg
[6] = Sprague-Dawley (SD), tail intravenous injection group, 9 mg/kg
[7] = Sprague-Dawley (SD), tail intravenous injection BA/AH-DPI saline solution 9 mg/kg
[8] = male, SD, inhaled or intranasal, AH in rat plasma, pulmonary administration group, BA/AH-DPI 9 mg/kg
[9] = male, SD, inhaled, rat plasma, pulmonary administration BA/AH-DPI 9 mg/kg
[10] = male, SD, AH in rat plasma, tail intravenous injection group, 9 mg/kg
[11] = male, SD, rat plasma, tail intravenous injection BA/AH-DPI saline solution 9 mg/kg
[12] = male, Sprague-Dawley (SD), rat plasma, tail intravenous injection BA/AH-DPI saline solution 9 mg/kg

For `Nc1c(Br)cc(Br)cc1CNC1CCC(O)CC1` (stereo not drawn) [AH, ambroxol hydrochloride], the “CL/F (clearance)” value ([1]; pulmonary administration group, BA/AH-DPI 9 mg/kg) was 876.24 ± 146.55 g/h/kg, the “CL/F (clearance)” value ([1]; tail intravenous injection group, 9 mg/kg) was 1454.72 ± 257.24 g/h/kg and the concentration at 2 min ([1]; SD, tail intravenous injection BA/AH-DPI saline solution 9 mg/kg) was 3230 ± 973 ng/mL. It also gave a concentration at 2 min [1, 4] of 7610 ± 1750 ng/mL, a concentration at 4 min [1, 4] of 5150 ± 879 ng/mL and a concentration at 10 min [1, 4] of 2450 ± 384 ng/mL. The concentration at 15 min [1, 4] was 1320 ± 524 ng/mL, the concentration at 30 min [1, 4] was 798 ± 289 ng/mL and the concentration at 60 min [1, 4] was 503 ± 200 ng/mL. It also gave a concentration at 120 min [1, 4] of 256 ± 139 ng/mL, a concentration at 240 min [1, 4] of 153 ± 60 ng/mL and a concentration at 360 min [1, 4] of 66.2 ± 38.2 ng/mL. For the same compound, the Cmax [1, 5] was 30400 ± 6970 ng/g, the Tmax [1, 5] was 2.34 ± 0.78 min and the half-life [1, 5] was 91.8 ± 26.4 min. It also gave an MRT last [1, 5] of 72.6 ± 12 min, a Cmax [1, 6] of 12900 ± 3890 ng/g and a Tmax [1, 6] of 1.98 min. For the same compound, the half-life [1, 6] was 72.6 ± 11.4 min, the MRT last [1, 6] was 60.6 ± 7.2 min and the concentration at 4 min [1, 7] was 1780 ± 454 ng/mL. For the same compound, the concentration at 10 min [1, 7] was 1230 ± 183 ng/mL, the concentration at 15 min [1, 7] was 1030 ± 210 ng/mL and the concentration at 30 min [1, 7] was 780 ± 243 ng/mL. The concentration at 60 min [1, 7] was 352 ± 83.1 ng/mL, the concentration at 120 min [1, 7] was 135 ± 58.9 ng/mL and the concentration at 240 min [1, 7] was 68.4 ± 24.5 ng/mL. For the same compound, the concentration at 360 min [1, 7] was 23.4 ± 10.5 ng/mL, the D10 [2] was 0.77 μm and the D50 [2] was 3.07 μm. The D90 [2] was 8.43 μm, the “SMD (Sauter mean diameter)” value [2] was 1.79 μm and the “VMD (Volume median diameter)” value [2] was 3.93 μm. The “<3 μm” value ([2]; fraction of particles) was 49.10%, the “<5 μm” value ([2]; fraction of particles) was 70.30% and the “CL/F (clearance)” value ([3]; AH in rat plasma, tail intravenous injection group, 9 mg/kg) was 169.3805 ± 53.272 mL/min/kg. The Cmax [3, 8] was 1770 ± 382 ng/mL, the CL/F ([3]; male, SD, inhaled or intranasal, AH in rat plasma, pulmonary administration group, BA/AH-DPI 9 mg/kg, read-out: CL/F (clearance) (converted)) was 237 mL/min/kg and the half-life [3, 8] was 109 ± 39.6 min. It also gave an MRT last [3, 8] of 49.8 ± 6 min, a Vd/F ([3]; male, SD, inhaled or intranasal, AH in rat plasma, pulmonary administration group, BA/AH-DPI 9 mg/kg, read-out: Vz/F (apparent volume of distribution)) of 37.2 ± 15.6 L/kg and a bioavailability ([3]; male, SD, inhaled, rat plasma, pulmonary administration of BA/AH-DPI vs tail intravenous injection, 9 mg/kg, read-out: Absolute bioavailability) of 53.5%. It also gave a concentration at 2 min [3, 9] of 763 ± 101 ng/mL, a concentration at 10 min [3, 9] of 1130 ± 170 ng/mL and a concentration at 15 min [3, 9] of 464 ± 191 ng/mL. It also gave a concentration at 30 min [3, 9] of 280 ± 75.8 ng/mL, a concentration at 60 min [3, 9] of 124 ± 35.3 ng/mL and a concentration at 120 min [3, 9] of 40.2 ± 21.1 ng/mL. It also gave a concentration at 240 min [3, 9] of 21 ± 6.64 ng/mL, a concentration at 360 min [3, 9] of 8.57 ± 0.38 ng/mL and a Cmax [3, 10] of 3300 ± 1440 ng/mL. For the same compound, the Tmax [3, 10] was 1.98 min, the half-life [3, 10] was 146 ± 53.4 min and the MRT last [3, 10] was 49.2 ± 10.2 min. For the same compound, the concentration at 10 min [3, 11] was 395 ± 142 ng/mL, the concentration at 15 min [3, 11] was 306 ± 140 ng/mL and the concentration at 30 min [3, 11] was 252 ± 116 ng/mL. The concentration at 60 min [3, 11] was 148 ± 58.7 ng/mL, the concentration at 120 min [3, 11] was 49.4 ± 23 ng/mL and the concentration at 240 min [3, 11] was 33.9 ± 12.2 ng/mL. The concentration at 360 min [3, 11] was 18.9 ± 6.61 ng/mL, the Tmax ([3]; male, Sprague-Dawley (SD), inhaled or intranasal, AH in rat plasma, pulmonary administration group, BA/AH-DPI 9 mg/kg) was 4.02 min and the concentration at 4 min ([3]; male, Sprague-Dawley (SD), inhaled, rat plasma, pulmonary administration BA/AH-DPI 9 mg/kg) was 1770 ± 382 ng/mL. For the same compound, the concentration at 2 min [3, 12] was 3300 ± 1690 ng/mL, the concentration at 4 min [3, 12] was 598 ± 233 ng/mL and the “Time of maximum blood concentration in plasma” value ([3]; rat, pulmonary administration of BA/AH-DPI 9 mg/kg) was 4 min.
